According to PMC10623271 (Heliyon, 2023):

Biological target: α-glucosidase from Bacillus stearothermophilus
Experiment: α-glucosidase assay
Type: biochemical
Settings: positive control, pNPG, 20 min 60 °C, pH 6.8, ± SD

IC50: 2.9 ± 0.4 nM
SMILES: C[C@H]1O[C@H](O[C@H]2[C@H](O)[C@@H](O)[C@@H](O[C@H]3[C@H](O)[C@@H](O)C(O)O[C@@H]3CO)O[C@@H]2CO)[C@H](O)[C@@H](O)[C@@H]1N[C@H]1C=C(CO)[C@@H](O)[C@H](O)[C@H]1O (stereo partly shown) [Acarbose, acarbose]
